Test results: patent US20240124417A1, “COMPOUNDS USEFUL AS IMMUNOMODULATORS” (Bristol-Myers Squibb Company, priority 2019, published 2024)

What follows are molecules tested against T1, PD-1/PD-L1 (Homo sapiens, UniProt Q9NZQ7) (assay: PD-1/PD-L1 Homogenous Time-Resolved Fluorescence (HTRF) binding assay). Settings: PD-L1-His 10 nM, PD-1-Ig 20 nM.
T1 construct: TVMV protease site linker (C); made in house; host or cells: HEK293T cells
Text: The ability of the compounds of the invention to bind to PD-L1 was investigated using a PD-1/PD-L1 Homogenous Time-Resolved Fluorescence (HTRF) binding assay.
Homogenous Time-Resolved Fluorescence (HTRF) binding assay.
The interaction of PD-1 and PD-L1 can be assessed using soluble, purified preparations of the extracellular domains of the two proteins. The PD-1 and PD-L1 protein extracellular domains were expressed as fusion proteins with detection tags, for PD-1, the tag was the Fc portion of Immunoglobulin (PD-1-Ig) and for PD-L1 it was the 6 histidine motif (PD-L1-His). All binding studies were performed in an HTRF assay buffer consisting of dPBS supplemented with 0.1% […] bovine serum albumin and 0.05% (v/v) Tween-20. For the h/PD-L1-His binding assay, inhibitors were pre-incubated with PD-L1-His (10 nM final) for 15 m in 4 μl of assay buffer, followed by addition of PD-1-Ig (20 nM final) in 1 μl of assay buffer and further incubation for 15 m. HTRF detection was achieved using europium crypate-labeled anti-Ig (1 nM final) and allophycocyanin (APC) labeled anti-His (20 nM final). Antibodies were diluted in HTRF detection buffer and 5 μl was dispensed on top of the binding reaction. […] Additional binding assays were established between the human proteins PD-1-Ig/PD-L2-His (20 & 5 nM, respectively) and CD80-His/PD-L1-Ig (100 & 10 nM, respectively). […]

T1 sequence (Q9NZQ7 18-239): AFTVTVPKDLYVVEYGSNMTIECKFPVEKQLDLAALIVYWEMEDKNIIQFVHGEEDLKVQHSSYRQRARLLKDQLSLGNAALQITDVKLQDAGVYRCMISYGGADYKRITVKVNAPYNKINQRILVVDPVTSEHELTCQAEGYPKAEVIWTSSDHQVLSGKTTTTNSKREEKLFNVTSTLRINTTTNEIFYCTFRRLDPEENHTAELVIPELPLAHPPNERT

Structure (SMILES)	IC50
Cc1c(COc2cc(OCc3cncc(C#N)c3)c(CNc3nnn[nH]3)cc2Cl)cccc1-c1cccc(OCCCN2CC[C@@H](O)C2)c1C [Example 1001, (R)-5-((2-(((1H-Tetrazol-5-yl)amino)methyl)-4-chloro-5-((3′-(3-(3-hydroxypyrrolidin-1-yl)propoxy)-2,2′-dimethyl-[1,1′-biphenyl]-3-yl)methoxy)phenoxy)methyl)nicotinonitrile]	4.9 nM
Cc1c(COc2cc(OCc3cncc(C#N)c3)c(CNCc3nnn[nH]3)cc2Cl)cccc1-c1cccc(OCCCN2CC[C@@H](O)C2)c1C [Example 1002, (R)-5-((2-((((1H-Tetrazol-5-yl)methyl)amino)methyl)-4-chloro-5-((3′-(3-(3-hydroxy-pyrrolidin-1-yl)propoxy)-2,2′-dimethyl-[1,1′-biphenyl]-3-yl)methoxy)phenoxy)methyl)-nicotinonitrile]	2.9 nM
Cc1c(COc2cc(OCc3cncc(C#N)c3)c(CN(C)CC(C)c3nnn[nH]3)cc2Cl)cccc1-c1cccc(OCCCN2CC[C@@H](O)C2)c1C (stereo partly drawn) [Example 1006, 5-((2-(((2-(1H-Tetrazol-5-yl)propyl)(methyl)amino)methyl)-4-chloro-5-((3′-(3-((R)-3-hydroxypyrrolidin-1-yl)propoxy)-2,2′-dimethyl-[1,1′-biphenyl]-3-yl)methoxy)phenoxy)methyl)nicotinonitrile]	2.7 nM
CCN(Cc1nnn[nH]1)Cc1cc(Cl)c(OCc2cccc(-c3cccc(OCCCN4CC[C@@H](O)C4)c3C)c2C)cc1OCc1cncc(C#N)c1 [Example 1007, (R)-5-((2-((((1H-Tetrazol-5-yl)methyl)(ethyl)amino)methyl)-4-chloro-5-((3′-(3-(3-hydroxypyrrolidin-1-yl)propoxy)-2,2′-dimethyl-[1,1′-biphenyl]-3-yl)methoxy)phenoxy)methyl)nicotinonitrile]	3 nM
Cc1c(COc2cc(OCc3cncc(C#N)c3)c(CN3CCCC(c4nnc[nH]4)C3)cc2Cl)cccc1-c1cccc(OCCCN2CC[C@@H](O)C2)c1C (stereo partly drawn) [Example 1008, 5-((2-((3-(4H-1,2,4-Triazol-3-yl)piperidin-1-yl)methyl)-4-chloro-5-((3′-(3-((R)-3-hydroxypyrrolidin-1-yl)propoxy)-2,2′-dimethyl-[1,1′-biphenyl]-3-yl)methoxy)phenoxy)-methyl)nicotinonitrile]	4.2 nM
Cc1c(COc2cc(OCc3cncc(C#N)c3)c(CN3CCCCC3c3nc(=O)[nH][nH]3)cc2Cl)cccc1-c1cccc(OCCCN2CC[C@@H](O)C2)c1C (stereo partly drawn) [Example 1010, 5-((4-Chloro-5-((3′-(3-((R)-3-hydroxypyrrolidin-1-yl)propoxy)-2,2′-dimethyl-[1,1′-biphenyl]-3-yl)methoxy)-2-((2-(5-oxo-2,5-dihydro-1H-1,2,4-triazol-3-yl)piperidin-1-yl)-methyl)phenoxy)methyl)nicotinonitrile]	5.3 nM
Cc1c(COc2cc(OCc3cncc(C#N)c3)c(CN3CCCCC3c3cn[nH]c3)cc2Cl)cccc1-c1cccc(OCCCN2CC[C@@H](O)C2)c1C (stereo partly drawn) [Example 1011, 5-((2-((2-(1H-Pyrazol-4-yl)piperidin-1-yl)methyl)-4-chloro-5-((3′-(3-((R)-3-hydroxy-pyrrolidin-1-yl)propoxy)-2,2′-dimethyl-[1,1′-biphenyl]-3-yl)methoxy)phenoxy)methyl)-nicotinonitrile]	17.5 nM
Cc1c(COc2cc(OCc3cncc(C#N)c3)c(CNCC(C)c3nnn[nH]3)cc2Cl)cccc1-c1cccc(OCCCN2CC[C@@H](O)C2)c1C (stereo partly drawn) [Example 1013, 5-((2-(((2-(1H-Tetrazol-5-yl)propyl)amino)methyl)-4-chloro-5-((3′-(3-((R)-3-hydroxy-pyrrolidin-1-yl)propoxy)-2,2′-dimethyl-[1,1′-biphenyl]-3-yl)methoxy)phenoxy)methyl)-nicotinonitrile]	3.2 nM
Cc1c(COc2cc(OCc3cncc(C#N)c3)c(CNCCc3nnnn3C)cc2Cl)cccc1-c1cccc(OCCCN2CC[C@@H](O)C2)c1C [Example 1014, (R)-5-((4-Chloro-5-((3′-(3-(3-hydroxypyrrolidin-1-yl)propoxy)-2,2′-dimethyl-[1,1′-biphenyl]-3-yl)methoxy)-2-(((2-(1-methyl-1H-tetrazol-5-yl)ethyl)amino)methyl)-phenoxy)methyl)nicotinonitrile]	2.9 nM
Cc1c(COc2cc(OCc3cncc(C#N)c3)c(CN3CCCC3c3nnn[nH]3)cc2Cl)cccc1-c1cccc(OCCCN2CC[C@@H](O)C2)c1C (stereo partly drawn) [Example 1015, 5-((2-((2-(1H-Tetrazol-5-yl)pyrrolidin-1-yl)methyl)-4-chloro-5-((3′-(3-((R)-3-hydroxy-pyrrolidin-1-yl)propoxy)-2,2′-dimethyl-[1,1′-biphenyl]-3-yl)methoxy)phenoxy)methyl)-nicotinonitrile]	2.9 nM
Cc1c(COc2cc(OCc3cncc(C#N)c3)c(CN3CCCCC3c3cn[nH]c3)cc2Cl)cccc1-c1cccc(OCC2CCCN(C)C2)c1Cl (stereo not shown) [Example 1020, 5-((2-((2-(1H-Pyrazol-4-yl)piperidin-1-yl)methyl)-4-chloro-5-((2′-chloro-2-methyl-3′-((1-methylpiperidin-3-yl)methoxy)-[1,1′-biphenyl]-3-yl)methoxy)phenoxy)methyl)-nicotinonitrile]	2.8 nM

These reach a lower IC50. Values come first.

IC50	Structure (SMILES)
2.3 nM	Cc1c(COc2cc(OCc3cncc(C#N)c3)c(CN(C)C(C)c3nnn[nH]3)cc2Cl)cccc1-c1cccc(OCCCN2CC[C@@H](O)C2)c1C (stereo partly drawn) [Example 1005, 5-((2-(((1-(1H-Tetrazol-5-yl)ethyl)(methyl)amino)methyl)-4-chloro-5-((3′-(3-((R)-3-hydroxypyrrolidin-1-yl)propoxy)-2,2′-dimethyl-[1,1′-biphenyl]-3-yl)methoxy)phenoxy)methyl)nicotinonitrile]
1.9 nM	Cc1c(COc2cc(OCc3cncc(C#N)c3)c(CN(C)Cc3nnn[nH]3)cc2Cl)cccc1-c1cccc(OCCCN2CC[C@@H](O)C2)c1C [Example 1016, (R)-5-((2-((((1H-Tetrazol-5-yl)methyl)(methyl)amino)methyl)-4-chloro-5-((3′-(3-(3-hydroxypyrrolidin-1-yl)propoxy)-2,2′-dimethyl-[1,1′-biphenyl]-3-yl)methoxy)phenoxy)-methyl)nicotinonitrile]
1.9 nM	Cc1c(COc2cc(OCc3cncc(C#N)c3)c(CN3CCC(c4nnn[nH]4)C3)cc2Cl)cccc1-c1cccc(OCCCN2CC[C@@H](O)C2)c1C (stereo partly drawn) [Example 1017, 5-((2-((3-(1H-Tetrazol-5-yl)pyrrolidin-1-yl)methyl)-4-chloro-5-((3′-(3-((R)-3-hydroxy-pyrrolidin-1-yl)propoxy)-2,2′-dimethyl-[1,1′-biphenyl]-3-yl)methoxy)phenoxy)methyl)-nicotinonitrile]
1.4 nM	Cc1c(COc2cc(OCc3cncc(C#N)c3)c(CN3CCCC(c4ncc[nH]4)C3)cc2Cl)cccc1-c1cccc(OCCCN2CC[C@@H](O)C2)c1C (stereo partly drawn) [Example 1003, 5-((2-((3-(1H-Imidazol-2-yl)piperidin-1-yl)methyl)-4-chloro-5-((3′-(3-((R)-3-hydroxy-pyrrolidin-1-yl)propoxy)-2,2′-dimethyl-[1,1′-biphenyl]-3-yl)methoxy)phenoxy)methyl)-nicotinonitrile]
1.1 nM	Cc1c(COc2cc(OCc3cncc(C#N)c3)c(CN(C)CCc3nn[nH]n3)cc2Cl)cccc1-c1cccc(OCCCN2CC[C@@H](O)C2)c1C [Example 1004, (R)-5-((2-(((2-(2H-Tetrazol-5-yl)ethyl)(methyl)amino)methyl)-4-chloro-5-((3′-(3-(3-hydroxypyrrolidin-1-yl)propoxy)-2,2′-dimethyl-[1,1′-biphenyl]-3-yl)methoxy)phenoxy)-methyl)nicotinonitrile]
0.7 nM	Cc1c(COc2cc(OCc3cncc(C#N)c3)c(CN3CCCCC3c3nnn[nH]3)cc2Cl)cccc1-c1cccc(OCCCN2CC[C@@H](O)C2)c1C (stereo partly drawn) [Example 1012, 5-((2-((2-(1H-Tetrazol-5-yl)piperidin-1-yl)methyl)-4-chloro-5-((3′-(3-((R)-3-hydroxy-pyrrolidin-1-yl)propoxy)-2,2′-dimethyl-[1,1′-biphenyl]-3-yl)methoxy)phenoxy)methyl)-nicotinonitrile]
0.5 nM	Cc1c(COc2cc(OCc3cncc(C#N)c3)c(CN3CCCCC3c3ncc[nH]3)cc2Cl)cccc1-c1cccc(OCCCN2CC[C@@H](O)C2)c1C (stereo partly drawn) [Example 1009, 5-((2-((2-(1H-Imidazol-2-yl)piperidin-1-yl)methyl)-4-chloro-5-((3′-(3-((R)-3-hydroxy-pyrrolidin-1-yl)propoxy)-2,2′-dimethyl-[1,1′-biphenyl]-3-yl)methoxy)phenoxy)methyl)-nicotinonitrile]
0.5 nM	Cc1c(COc2cc(OCc3cncc(C#N)c3)c(CN3CCCC(c4nnn[nH]4)C3)cc2Cl)cccc1-c1cccc(OCCCN2CC[C@@H](O)C2)c1C (stereo partly drawn) [Example 1018, 5-((2-((3-(1H-Tetrazol-5-yl)piperidin-1-yl)methyl)-4-chloro-5-((3′-(3-((R)-3-hydroxy-pyrrolidin-1-yl)propoxy)-2,2′-dimethyl-[1,1′-biphenyl]-3-yl)methoxy)phenoxy)methyl)-nicotinonitrile]
